Activity calls are given as the source filed them.
Assays:
[1] = system: Proteus vulgaris; assay: Antibacterial activity against Proteus vulgaris at 250 ug/ml after 24 to 45 hrs by disc diffusion method; assay type: functional; settings: read-out: IZ
[2] = system: Escherichia coli; assay: Antibacterial activity against Escherichia coli at 250 ug/ml after 24 to 45 hrs by disc diffusion method; assay type: functional; settings: read-out: IZ
[3] = system: Pseudomonas; assay: Antibacterial activity against Pseudomonas at 250 ug/ml after 24 to 45 hrs by disc diffusion method; assay type: functional; settings: read-out: IZ
[4] = system: Enterococcus faecalis; assay: Antibacterial activity against Enterococcus faecalis at 250 ug/ml after 24 to 45 hrs by disc diffusion method; assay type: functional; settings: for zone of inhibition at 250 µg/mL: read-out: IZ
[5] = system: Achaea janata; assay: Antifeedant activity against fourth instar larvae of Achaea janata fed on compound treated castor leaves at 150 ppm after 24 hrs by leaf disc method; assay type: functional, organism-based
[6] = system: Candida albicans; assay: Antifungal activity against Candida albicans at 250 ug/ml after 72 hrs by disc diffusion method; assay type: functional; settings: for zone of inhibition at 250 µg/mL: read-out: IZ
[7] = system: Staphylococcus aureus; assay: Antibacterial activity against Staphylococcus aureus at 250 ug/ml after 24 to 45 hrs by disc diffusion method; assay type: functional; settings: read-out: IZ
[8] = system: Achaea janata; assay: Antifeedant activity against fourth instar larvae of Achaea janata fed on compound treated castor leaves at 200 ppm after 24 hrs by leaf disc method; assay type: functional, organism-based
[9] = system: Aspergillus niger; assay: Antifungal activity against Aspergillus niger at 50 ug/ml after 72 hrs by disc diffusion method; assay type: functional, organism-based
[10] = system: Klebsiella pneumoniae; assay: Antibacterial activity against Klebsiella pneumoniae at 250 ug/ml after 24 to 45 hrs by disc diffusion method; assay type: functional; settings: read-out: IZ
[11] = system: Penicillium; assay: Antifungal activity against Penicillium at 50 ug/ml after 72 hrs by disc diffusion method; assay type: functional, organism-based

Compound	zone of inhibition at 250 µg/mL [1] [mm]	zone of inhibition at 250 µg/mL [2] [mm]	zone of inhibition at 250 µg/mL [3] [mm]	Activity [4]	Activity [5]	Activity [6]	zone of inhibition at 250 µg/mL [7] [mm]	Activity [8]	Activity [9]	zone of inhibition at 250 µg/mL [10] [mm]	Activity [11]	zone of inhibition at 250 µg/mL [4] [mm]	zone of inhibition at 250 µg/mL [6] [mm]
FC(F)(F)c1ccc2c(c1)CN1CN2Cc2cc(C(F)(F)F)ccc21	13	13	13	inactive	Active	inactive	13	Active	inactive	13	inactive		
Clc1ccc2c(c1)CN1CN2Cc2cc(Cl)ccc21	13	13	13	inactive		inactive	13	Active	inactive	13	inactive		
Clc1cccc2c1CN1CN2Cc2c(Cl)cccc21	8	8	8				13	Active	inactive	8	inactive	13	8
Cc1cc2c(cc1F)N1Cc3cc(C)c(F)cc3N(C2)C1	13	13	13				13	Active	inactive	13	inactive	8	13
Brc1ccc2c(c1)CN1CN2Cc2cc(Br)ccc21	13	20	13				20	Active	Active	20	Active	20	20
COc1ccc2c(c1Cl)CN1CN2Cc2c1ccc(OC)c2Cl	20	20	20				20	Active	inactive	20	Active	13	20
Brc1cccc2c1CN1CN2Cc2c(Br)cccc21	8	8	13				8	Active	inactive	13	inactive	13	8
Fc1cc2c(cc1Cl)N1Cc3cc(F)c(Cl)cc3N(C2)C1	13	13	13	inactive	Active		13	Active	inactive	13	Active		13
Clc1ccc2c(c1)N1Cc3ccc(Cl)cc3N(C2)C1	13	13	13				13	Active	inactive	13	inactive	13	8
Fc1cc(F)c2c(c1)CN1CN2Cc2cc(F)cc(F)c21	8	13	8	inactive	Active	inactive	8	Active	inactive	8	inactive		
O=C(c1ccccc1)c1cc(Cl)cc2c1N1Cc3cc(Cl)cc(C(=O)c4ccccc4)c3N(C2)C1	13	13	13	inactive			13	Active	Active	13	inactive		20
Cc1cc(F)c2c(c1)CN1CN2Cc2cc(C)cc(F)c21	13	13	8	inactive			13	Active	inactive	13	inactive		8
Cc1cc2c(cc1Cl)N1Cc3cc(C)c(Cl)cc3N(C2)C1	8	8	13				8	Active	inactive	13	inactive	13	13
Clc1cccc2c1N1Cc3cccc(Cl)c3N(C2)C1	8	8	8				13	Active	inactive	8	inactive	13	8
Cc1cc(Cl)c2c(c1)CN1CN2Cc2cc(C)cc(Cl)c21	13	13	8	inactive		inactive	13	Active	inactive	13	inactive		
Fc1ccc2c(c1)CN1CN2Cc2cc(F)ccc21	13	13	8	inactive			13	Active	inactive	13	inactive		8
Cc1cc(Br)cc2c1N1Cc3cc(Br)cc(C)c3N(C2)C1	8	8	13				8	Active	inactive	13	inactive	13	8
Brc1cccc2c1N1Cc3cccc(Br)c3N(C2)C1	8	13	8	inactive		inactive	8	Active	inactive	8	inactive		
Cc1ccc2c(c1Cl)CN1CN2Cc2c1ccc(C)c2Cl	13	13	13				13	Active	inactive	13	inactive	8	13
COc1cc2c(cc1Cl)N1Cc3cc(OC)c(Cl)cc3N(C2)C1	20	20	20				20	Active	inactive	20	Active	8	20
Cc1ccc2c(c1I)CN1CN2Cc2c1ccc(C)c2I	8	8	13				8	Active	inactive	13	inactive	13	13
